Experiments:
[1] = male, Sprague-Dawley, rat, in vivo, po
Description: Example E: Rat pharmacokinetics assay
Blood samples were collected into pre-chilled collection tubes containing K2EDTA and processed to plasma at 10 time points over a span of pre-dose to 24 h post-administration. Plasma samples were subject to protein precipitation with a 12.5-fold volume of methanol, vortexed and centrifuged. Supernatants were transferred and evaporated to dryness under nitrogen and reconstituted with 5% acetonitrile in water.

[2] = Stability in pH2 buffered solution; format: physicochemical; settings: 50 µg/mL, pH 2
Summary of the method: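 Compounds diluted from 1 mg/mL acetonitrile stock to 50 μg/mL in 50 mM phosphate buffer with 150 mM NaCl at pH2 or pH7, held at 40° C. for 24 hrs. UPLC sampling at 0, 3, 6, 9, 12 hrs, plus 24 hrs from oven-stored duplicate; reported as % area normalized of compound peak.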

Cmax [1]: 2100 nM | Reference Compound A AUCinf. [1]: 7.57 µM·h | Reference Compound A F % ([1]; 1 mg/kg): 63.6% | Stability at pH2, 0 hr ([2]; 0 h): 98.5 % AN | Stability at pH2, 3 hr ([2]; 3 h): 97.8 % AN | Stability at pH2, 6 hr ([2]; 6 h): 97.3 % AN | Stability at pH2, 9 hr ([2]; 9 h): 96.7 % AN | Stability at pH2, 12 hr ([2]; 12 h): 96.1 % AN | Stability at pH2, 24 hr ([2]; 24 h): 94.4 % AN
Compound: CC(C)C(=O)OC[C@H]1O[C@@](C#N)(c2ccc3c(N)ncnn23)[C@H](O)[C@@H]1O [Ester Reference Compound]
